Data set [1] relates to acetylated histone 3 and histone 4. Description: Acetylation of Histone 3 and Histone 4 in normal mouse brain (western blot). The data set is classed as in vivo. To be noted: for entry into the brain: mouse, given intraperitoneally, shown by histone acetylation; for acetylation of histone 3 and histone 4 in brain: normal mice, 0.03 mg/20 gram mouse, 4 hours of exposure, compared to control tissue. Here is the method: FIG. 5: Induction of acetylation of Histone 3 and Histone 4 in normal mouse brain by Compound 100 and Compound 102. • Normal mice were treated with Compound 100 and Compound 102, 0.03 mg/20 gram mouse. After 4 hours of exposure, treated and control animals (vehicle alone) animals were sacrificed and western blots for acetylated histone 3 and histone 4 were made.
Normal mice were treated with Compound 100 or Compound 102 at a dose of 0.03 mg/20 gram mouse, or with vehicle. After 4 hours of exposure, treated and control animals were sacrificed and western blots for acetylated histone 3 and histone 4 were made.
In general terms: A western blot detects proteins with antibodies after separation by electrophoresis.

The target of data set [2] is protein phosphatase 2A (Homo sapiens, UniProt P67775). Description: Inhibition of protein phosphatase 2A. The data set is classed as biochemical.
Data set [3] relates to p-Akt / total Akt in human medulloblastoma DAOY xenografts. In words: Induction of phosphorylated Akt in DAOY cells growing as xenografts in SCID mice (western blot). It counts as in vivo. As to conditions: 0.03 mg/20 gram mouse, after 4 hours and 24 hours. The protocol:
FIG. 2: Induction of phosphorylated Akt by Compound 100 in DAOY cells growing as xenografts in SCID mice. • SCID mice with human medulloblastoma cells, DAOY, implanted subcutaneously were treated with 0.03 mg/20 gram mouse with Compound 100 or vehicle alone. After 4 hours and 24 hours western blots were made for p-Akt, total Akt, and beta actin. Control cells (C) at both time points (only 24 hour point shown) had only trace amounts of p-Akt and substantial amounts of total Akt and beta actin.
Human medulloblastoma DAOY cells were implanted subcutaneously in SCID mice. Mice were then treated with 0.03 mg/20 gram mouse with Compound 100 or vehicle alone. After 4 hours and 24 hours, western blots were made for phosphorylated Akt (p-Akt), total Akt, and beta actin. Control cells at both time points had only trace amount of p-Akt and substantial amounts of total Akt and beta actin.

Data set [4] concerns p-Akt / total Akt in human glioblastoma U87 xenografts. In words: Induction of phosphorylated Akt in U87 cells growing as xenografts in SCID mice (western blot). It counts as in vivo. To be noted: 0.03 mg/20 gram mouse, after 4 hours. Here is the method:
FIG. 4: Induction of phosphorylated Akt by Compound 100 in U87 cells growing as xenografts in SCID mice. • SCID mice with human glioblastoma cells, U87, implanted subcutaneously were treated with 0.03 mg/20 gram mouse with Compound 100 or vehicle alone. After 4 hours, western blots were made for p-Akt, total Akt, and beta actin.
Human glioblastoma U87 cells were implanted subcutaneously in SCID mice. Mice were then treated with 0.03 mg/20 gram mouse with Compound 100 or vehicle alone. After 4 hours, western blots were made for p-Akt, total Akt, and beta actin.

The test system of data set [5] is p-Akt / total Akt in human glioblastoma cells, U87. In words: Induction of phosphorylated Akt in U87 cells in culture (western blot). It counts as cell-based. To be noted: after 4 hours. The protocol:
FIG. 3: Induction of phosphorylated Akt by Compound 100 in U87 cells in culture. • The human glioblastoma cells, U87, were exposed to compound 100 or vehicle alone. After 4 hours western blots were made for p-Akt, total Akt, and beta actin.
Human glioblastoma cells, U87, were grown in culture and exposed to Compound 100 or vehicle alone. After 4 hours, western blots were made for p-Akt, total Akt, and beta actin.

In data set [6] the test system is p-Akt / total Akt in medulloblastoma cells, DAOY. Description: Induction of phosphorylated Akt in DAOY cells in culture (western blot). The data set is classed as cell-based, human. As to conditions: after 4 hours. Here is the method:
FIG. 1: Induction of phosphorylated Akt by Compound 100 in DAOY cells in culture. • The medulloblastoma cells, DAOY, in culture were exposed to Compound 100, Compound 205 or vehicle alone. After 4 hours western blots were made for p-Akt, total Akt, and beta actin.
Medulloblastoma cells, DAOY, were grown in culture and exposed to Compound 100, […] or vehicle alone. After 4 hours western blots were made for p-Akt, total Akt and beta actin.

Data set [7] relates to Akt. In words: Akt phosphorylation in the cell lines tested growing as xenografts in SCID mice. It counts as in vivo. As to conditions: given intraperitoneally. From the text: The compounds increase the phosphorylation of several regulatory proteins including Akt. At low doses that are non-toxic to mice, these compounds slightly stimulate cell proliferation and increases phosphorylation of Akt in human cancer cell lines tested including SH-SY5Y.

Data set [8] concerns primary embryonal rat cortical neuronal cells. In words: Survival of primary cortical neurons after environmental stress (growth factor deficient medium 1 hour). It counts as cell-based. As to conditions: 500 nM, cell counts at 3, 6, 13 and 23 days in culture, n=4. Here is the method:
FIG. 6. Photomicrographs of primary embryonal rat cortical neuronal cells at 23 days subjected to environmental stress by exposure to growth factor deficient medium for 1 hour on day 3 of culture.
FIG. 7. Average number of primary embryonal rat cortical neuronal cells at 3, 6, 13, and 23 days in culture (n=4). • All cultures were exposed to growth factor deficient medium for 1 hour on day 3 followed by of culture in complete medium containing no supplement (control), drug vehicle (0.05% DMSO), compound 102 (500 nM), or compound 201 (500 nM).
Neurons were chronically or acutely treated with each compound and exposed to environmental stress (replacement of the culture medium with a saline PBS based solution for one hour followed by removal of the PBS medium and restoration of standard neuronal culture medium) and then observed for survival (FIG. 6).

The test system of data set [9] is primary rat cortical neurons. Description: Neurite extension after Calcein staining. It counts as cell-based. As to conditions: 250 and 500 nM. Here is the method:
Neurite extension was evaluated after Calcein staining using commercially available software.

In data set [10] the test system is NMDA type response to glutamate in primary rat cortical neurons. Description: Calcium response of cultured neurons to acute glutamate exposure. To be noted: for calcium response to 200 uM glutamate versus DMSO control: 500 nM compound, 24 h prior to glutamate, single study; for average % increase in response to glutamate exposure: average of 4 separate experiments (FIG. 19). The data set is classed as cell-based. From the text: To assess the effects of compound 102 and compound 201, independently, on neuronal function, the ability of the neurons in a culture dish to respond to exposure to glutamate was studied. In vitro, neurons respond to glutamate with the activation of several receptors associated with different transducing mechanisms. The assortment of glutamate sensitive receptors in a given neuronal population depends on maturation and differentiation. After seven days in culture, there is an assortment of glutamate receptors, including the AMPA/Kainate and NMDA receptors. AMPA/Kainate receptors are in general maximally expressed in the first few days in vitro followed by a gradual decline, while NMDA receptor expression increases over time, reaching a maximum after 7 days in vitro. AMPA/Kainate responses to exposure to glutamate as measured by calcium flux are characterized by fast desensitization (i.e. very little measurable calcium increase), while NMDA responses are characterized by an elevation of calcium concentration that persists as long as glutamate is applied. In the absence of test drug, there was variability in glutamate responsiveness dependent on NMDA receptor expression. A typical response of neurons in culture to glutamate characteristic of the NMDA receptors consists of a rapid increase and a high plateau phase of calcium (FIGS. 8-10). […] This modulation is compatible with a positive neurotrophic effect of compound 201.

Data set [11] relates to HDAC. In words: HDAC inhibition. It counts as biochemical.

“Also recorded” adds a separate entry of the source.

protein phosphatase 2A, sequence (P67775 whole entry): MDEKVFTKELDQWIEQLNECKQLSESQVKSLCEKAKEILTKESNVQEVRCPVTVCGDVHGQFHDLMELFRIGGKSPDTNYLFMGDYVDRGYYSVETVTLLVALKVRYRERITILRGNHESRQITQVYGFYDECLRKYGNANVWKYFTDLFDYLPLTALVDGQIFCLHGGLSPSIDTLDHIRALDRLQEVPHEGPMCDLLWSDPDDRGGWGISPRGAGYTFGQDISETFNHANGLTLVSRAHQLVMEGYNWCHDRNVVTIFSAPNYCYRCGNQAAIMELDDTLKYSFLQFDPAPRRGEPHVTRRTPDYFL

Regarding `CN1CCN(C(=O)C2C(C(=O)O)[C@H]3CC[C@@H]2O3)CC1` (stereo partly shown) [Compound 100], the “entry into the brain” value in data set [1] is on record as “properties that enhance their entry into the brain”. For the same molecule, in data set [1], the “acetylation of histone 3 and histone 4 in brain” value is “increased acetylation of the histones”. Further, the “inhibition of protein phosphatase 2A” value in data set [2] was “inhibit protein phosphatase 2A”. The “p-Akt (western blot)” value in [3], in data set [4], in [5] and in data set [6] was “induction of p-Akt” throughout. Also, the “total Akt relative to beta actin (western blot)” value in data set [3], in data set [4], in data set [5] and in data set [6] was “increase in total Akt relative to beta actin” in each case. Besides, in data set [7], the “Akt phosphorylation in xenografts” value is given as “increased Akt phosphorylation”.

As to `CC(C)(C)OC(=O)N1CCN(C(=O)C2C(C(=O)O)[C@H]3CC[C@@H]2O3)CC1` (stereo partly shown) [Compound 102], in data set [1], the “entry into the brain” value is “properties that enhance their entry into the brain”; the “acetylation of histone 3 and histone 4 in brain” value is listed as “increased acetylation of the histones”. Further, the “inhibition of protein phosphatase 2A” value in data set [2] is listed as “inhibit protein phosphatase 2A; also recorded: protein phosphatase 2A inhibitor”. For the same molecule, in data set [8], the “neuronal cell number / protection of cell integrity after stress” value is on record as “little effect on cell number”. Also, in data set [9], the process length entry is reported as “increased process length” and the total neurite outgrowth entry is reported as “increased total neurite outgrowth”. In addition, in [10], the “calcium response to 200 uM glutamate versus DMSO control” value is “statistically significant increase in the NMDA type response to glutamate; also recorded: significantly enhanced the response to glutamate” and the “average % increase in response to glutamate exposure” value is reported as “smaller but statistically significant effect; also recorded: less effective but still had a significant effect”. Further, the “Akt phosphorylation in xenografts” value in data set [7] is listed as “increased Akt phosphorylation”.

Turning to `O=C(O)C1C(C(=O)N2CCN(Cc3ccccc3)CC2)[C@@H]2CC[C@H]1O2` (stereo partly shown) [Compound 103], in [2], the “inhibition of protein phosphatase 2A” value was “inhibit protein phosphatase 2A”.

Consider `COc1ccc(CCN2CCC(NC(=O)C3C(C(=O)O)[C@H]4CC[C@@H]3O4)CC2)cc1` (stereo partly shown) [Compound 104], for which the “inhibition of protein phosphatase 2A” value in data set [2] is “inhibit protein phosphatase 2A”.

With `CCN1CCN(C(=O)C2C(C(=O)O)[C@H]3CC[C@@H]2O3)CC1` (stereo partly shown) [Compound 105], the “inhibition of protein phosphatase 2A” value in data set [2] is “inhibit protein phosphatase 2A”.

Take `CN(C)CCNC(=O)C1C(C(=O)O)[C@H]2CC[C@@H]1O2` (stereo partly shown) [Compound 106]: the “inhibition of protein phosphatase 2A” value in [2] is given as “inhibit protein phosphatase 2A”.

In the case of `COC(=O)C1C(C(=O)N2CCN(C)CC2)[C@@H]2CC[C@H]1O2` (stereo partly shown) [Compound 107], the “inhibition of protein phosphatase 2A” value in [2] is “inhibit protein phosphatase 2A”.

`CN1CCN(C(=O)C2C(C(=O)S)[C@H]3CC[C@@H]2O3)CC1` (stereo partly shown) [Compound 108]: the “inhibition of protein phosphatase 2A” value in data set [2] is recorded as “inhibit protein phosphatase 2A”.

Turning to `O=C(O)C1C(C(=O)N2CCOCC2)[C@@H]2CC[C@H]1O2` (stereo partly shown) [Compound 111], the “inhibition of protein phosphatase 2A” value in data set [2] is “inhibit protein phosphatase 2A”.

With `O=C(CCCCCNC(=O)c1ccccc1S)Nc1ccccc1` [Compound 201], the HDAC inhibition result in data set [11] is “class I and II HDAC inhibitor”. Also, the “neuronal cell number / protection of cell integrity after stress” value in data set [8] is “marked neurotrophic effects as evidenced by maintenance for up to 21 days neuronal cell numbers; also recorded: statistically significant (p<=0.01) protection of cell integrity”. Moreover, in [9], the process length entry is on record as “increased process length” and the total neurite outgrowth entry is listed as “increased total neurite outgrowth”. In [10], the “calcium response to 200 uM glutamate versus DMSO control” value was “statistically significant increase in the NMDA type response to glutamate; also recorded: significantly enhanced the response to glutamate” and the “average % increase in response to glutamate exposure” value is given as “significantly enhanced the response to glutamate”.

Regarding `O=C(CCCCCNC(=O)c1ccccc1S)Nc1cccnc1` [Compound 205], in data set [11], the HDAC inhibition entry is recorded as “investigational histone deacetylase inhibitor”. Moreover, the “inhibition of protein phosphatase 2A” value in [2] is “no anti-PP2A activity”. Also, in data set [6], the “p-Akt (western blot)” value is recorded as “little effect; also recorded: no effect”.

Source of the values: patent US8329719B2, “Neuroprotective agents for the prevention and treatment of neurodegenerative diseases” (Lixte Biotechnology, Inc., priority 2008, dated 2012).
